Experimental data reported in patent publication US4596799A, “9H-pyrrolo[2,1-c]-1,2,4-triazolo[4,3-a][1,4]benzodiazepines” (Ciba-Geigy Corporation, priority 1985, dated 1986).

Columns and labels:
rat = assay: Metrazole (pentylenetetrazole) test for anticonvulsant activity; assay type: in vivo; details: po
Excerpt: Anticonvulsant effects are observed, for example in the standard Metrazole (pentylenetetrazole) test for assessing anticonvulsant activity, e.g. orally in the rat as described in U.S. Pat. No. 4,479,955.

benzodiazepine receptor [1] = assay: in vivo benzodiazepine receptor binding (3H-flunitrazepam binding in brain); details: mouse
Method: In vivo benzodiazepine receptor binding is determined essentially as described in Eur. J. Pharmacol. 48, 213 (1978) and Nature 275, 551 (1978). Test compounds in a corn starch vehicle are administered orally or intraperitoneally to mice or rats. A decrease in the binding of ^3 H-flunitrazepam in the brain of drug-treated animals (as compared with the binding observed in animals treated with vehicle alone) is indicative of benzodiazepine receptor binding by the test compound.

benzodiazepine receptor [2] = assay: in vitro benzodiazepine receptor binding assay, tritiated flunitrazepam as radioactive ligand; details: 0.5 nM tritiated flunitrazepam; read-out: IC50, concentration required to inhibit the specific binding of tritiated flunitrazepam by 50%
Method: The benzodiazepine receptor binding properties indicative of the nervous system regulatory activity of said new compounds are determined in the receptor binding assay in vitro, e.g. similarly to that in Nature 266, 732 (1977) or Proc. Nat. Acad. Sci. USA 74, 3805 (1977), using tritiated flunitrazepam as the radioactive ligand. The concentration of the compounds of this invention, required to inhibit the specific binding of 0.5 nM of tritiated flunitrazepam by 50%, i.e. the IC50, is determined graphically.

Row | Structure (SMILES) | ED50 (rat) [mg/kg] | inhibition of flunitrazepam binding in vivo (benzodiazepine receptor [1]; 30 mg/kg p.o.) | IC50 (benzodiazepine receptor [2]) [pM] | inhibition of flunitrazepam binding in vivo (benzodiazepine receptor [1]; 5.3 mg/kg p.o.) [%] | inhibition of flunitrazepam binding in vivo (benzodiazepine receptor [1]; 0.6 mg/kg p.o.) [%]
1 | Cl.c1ccc(-c2nnc3n2-c2ccccc2Cn2cccc2-3)nc1 [Example 1, 3-(2-Pyridinyl)-9H-pyrrolo[2,1-c]-1,2,4-triazolo[4,3-a][1,4]benzodiazepine Hydrochloride] | ~3 | about 67% | ~4000 |  | 
2 | Cl.Clc1ccc2c(c1)-n1c(-c3ccccn3)nnc1-c1cccn1C2 [Example 3, 6-Chloro-3-(2-pyridinyl)-9H-pyrrolo[2,1-c]-1,2,4-triazolo[4,3-a][1,4]benzodiazepine Hydrochloride] |  |  | ~700 | ~50 | 
3 | Cl.FC(F)(F)c1ccc2c(c1)-n1c(-c3ccccn3)nnc1-c1cccn1C2 [Example 4, 6-Trifluoromethyl-3-(2-pyridinyl)-9H-pyrrolo[2,1-c]-1,2,4-triazolo[4,3-a][1,4]benzodiazepine Hydrochloride] |  |  | ~400 |  | ~50
4 | COc1cc2c(cc1OC)-n1c(-c3ccccn3)nnc1-c1cccn1C2.Cl [Example 7f, 6,7-dimethoxy-3-(2-pyridinyl)-9H-pyrrolo[2,1-c]-1,2,4-triazolo[4,3-a][1,4]benzodiazepine hydrochloride] |  | ~75% | ~1000 |  | 
